Measured values published in PubChem BioAssay (NCI).
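Briefly, cells in 96-well plates were exposed to five compound concentrations for 48 h, and endpoints were estimated by linear interpolation. Abbreviation: GI50, concentration required for 50% inhibition of growth. TGI: total growth inhibition.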

Assays:
Assay in all cases: growth of human tumour cells (NCI), 48 h
[1] = tested on: NCI-H460 lung
[2] = tested on: RXF 393 renal
[3] = tested on: SK-OV-3 ovarian
[4] = tested on: MDA-MB-435
[5] = tested on: SF-295 CNS
[6] = tested on: SNB-75 CNS
[7] = tested on: T-47D breast
[8] = tested on: K-562 leukemia
[9] = tested on: BT-549 breast
[10] = tested on: IGROV1 ovarian
[11] = tested on: SR leukemia
[12] = tested on: TK-10 renal
[13] = tested on: HOP-92 NSCLC
[14] = tested on: CCRF-CEM leukemia
[15] = tested on: M14 melanoma
[16] = tested on: NCI-H23 lung
[17] = tested on: MDA-MB-231 breast
[18] = tested on: SW-620 colon
[19] = tested on: ACHN renal
[20] = tested on: NCI-H522 lung
[21] = tested on: OVCAR-8 ovarian
[22] = tested on: KM12 colon
[23] = tested on: SK-MEL-2 melanoma
[24] = tested on: SN12C renal
[25] = tested on: UO-31 renal
[26] = tested on: UACC-257 melanoma
[27] = tested on: SF-539 CNS
[28] = tested on: HS 578T breast
[29] = tested on: OVCAR-4 ovarian
[30] = tested on: SF-268 CNS
[31] = tested on: A498 renal
[32] = tested on: HOP-62 NSCLC
[33] = tested on: MOLT-4 leukemia
[34] = tested on: DU-145 prostate
[35] = tested on: HCT-15 colon
[36] = tested on: MCF7 breast
[37] = tested on: PC-3 prostate
[38] = tested on: HT29 colon
[39] = tested on: HL-60(TB) leukemia
[40] = tested on: SK-MEL-5 melanoma
[41] = tested on: NCI-H226 lung
[42] = tested on: U251 CNS
[43] = tested on: A549 NSCLC
[44] = tested on: NCI/ADR-RES ovarian
[45] = tested on: SK-MEL-28 melanoma
[46] = tested on: RPMI-8226 leukemia
[47] = tested on: EKVX NSCLC
[48] = tested on: SNB-19 CNS
[49] = tested on: UACC-62 melanoma
[50] = tested on: COLO 205 colon
[51] = tested on: OVCAR-5 ovarian
[52] = tested on: HCT-116 colon
[53] = tested on: LOX IMVI melanoma
[54] = tested on: MALME-3M melanoma
[55] = tested on: CAKI-1 renal
[56] = tested on: OVCAR-3 ovarian
[57] = tested on: 786-0 renal
[58] = tested on: HCC-2998 colon

SMILES: O=[N+]([O-])c1c(Br)cc(Br)c2c1Nc1c(ccc(Cl)c1Cl)S2
- TGI [1]: 41.4 µM
- TGI [2]: 35.1 µM
- TGI [3]: 43 µM
- TGI [4]: 31.5 µM
- TGI [5]: 39.1 µM
- TGI [6]: > 72 µM
- TGI [7]: 29.9 µM
- TGI [8]: 17.3 µM
- TGI [9]: 8.87 µM
- TGI [10]: 31.2 µM
- TGI [11]: > 26.8 µM
- TGI [12]: 37.1 µM
- TGI [13]: 34.3 µM
- TGI [14]: 7.49 µM
- TGI [15]: 23.6 µM
- TGI [16]: 29.6 µM
- TGI [17]: 26.6 µM
- TGI [18]: 25.7 µM
- TGI [19]: 30.7 µM
- TGI [20]: 20.5 µM
- TGI [21]: 13.6 µM
- TGI [22]: 20.5 µM
- TGI [23]: 39.2 µM
- TGI [24]: 27.9 µM
- TGI [25]: 20.5 µM
- TGI [26]: 21.2 µM
- TGI [27]: 41.2 µM
- TGI [28]: > 100 µM
- TGI [29]: 28.7 µM
- TGI [30]: 38.6 µM
- TGI [31]: 39.1 µM
- TGI [32]: 34.9 µM
- TGI [33]: 7.6 µM
- TGI [34]: 27.3 µM
- TGI [35]: 39.7 µM
- TGI [36]: 17.9 µM
- TGI [37]: 35 µM
- TGI [38]: 26 µM
- TGI [39]: > 23.9 µM
- TGI [40]: 30.2 µM
- TGI [41]: 31.6 µM
- TGI [42]: 35.1 µM
- TGI [43]: 39.5 µM
- TGI [44]: 75.1 µM
- TGI [45]: 31.4 µM
- TGI [46]: > 100 µM
- TGI [47]: 30.9 µM
- TGI [48]: 35.1 µM
- TGI [49]: 33.1 µM
- TGI [50]: 26.3 µM
- TGI [51]: 33.7 µM
- TGI [52]: 19.1 µM
- TGI [53]: 8.78 µM
- TGI [54]: 27.7 µM
- TGI [55]: 33.6 µM
- TGI [56]: 9.5 µM
- TGI [57]: 22.8 µM
- TGI [58]: 28.8 µM

SMILES: CC(C)CNCC(O)COc1ccc(C(C)(C)c2ccc(OCC(O)CNCC(C)C)cc2)cc1 (stereo not given)
- GI50 [1]: 1.97 µM
- TGI [1]: 4.11 µM
- GI50 [2]: 1.66 µM
- TGI [2]: 3.67 µM
- GI50 [3]: 4.09 µM
- TGI [3]: 15.3 µM
- GI50 [4]: 1.73 µM
- TGI [4]: 3.29 µM
- GI50 [5]: 2.36 µM
- TGI [5]: 6.68 µM
- GI50 [6]: 4 µM
- TGI [6]: 18.2 µM
- GI50 [7]: 1.63 µM
- TGI [7]: 3.63 µM
- GI50 [9]: 7.82 µM
- TGI [9]: 21 µM
- GI50 [10]: 3.66 µM
- TGI [10]: 15.5 µM
- GI50 [11]: 2.02 µM
- TGI [11]: 4.39 µM
- GI50 [12]: 2.03 µM
- TGI [12]: 5.32 µM
- GI50 [13]: 1.48 µM
- TGI [13]: 9.17 µM
- GI50 [14]: 2.38 µM
- TGI [14]: 6.18 µM
- GI50 [15]: 1.76 µM
- TGI [15]: 3.43 µM
- GI50 [16]: 11.7 µM
- TGI [16]: 25.5 µM
- GI50 [17]: 1.5 µM
- TGI [17]: 3.25 µM
- GI50 [18]: 1.72 µM
- TGI [18]: 3.46 µM
- GI50 [19]: 1.82 µM
- TGI [19]: 3.41 µM
- GI50 [20]: 1.87 µM
- TGI [20]: 3.82 µM
- GI50 [21]: 2.01 µM
- TGI [21]: 4.42 µM
- GI50 [22]: 2.38 µM
- TGI [22]: 7.41 µM
- GI50 [23]: 1.81 µM
- TGI [23]: 3.57 µM
- GI50 [24]: 4.82 µM
- TGI [24]: 18.3 µM
- GI50 [25]: 1.53 µM
- TGI [25]: 2.89 µM
- GI50 [26]: 1.73 µM
- TGI [26]: 3.26 µM
- GI50 [27]: 1.71 µM
- TGI [27]: 3.23 µM
- GI50 [28]: 5 µM
- TGI [28]: 21.9 µM
- GI50 [29]: 6.52 µM
- TGI [29]: 21.4 µM
- GI50 [30]: 3.9 µM
- TGI [30]: 17.4 µM
- GI50 [31]: 11.3 µM
- TGI [31]: 25.1 µM
- GI50 [32]: 2.92 µM
- TGI [32]: 11.7 µM
- GI50 [33]: 2.03 µM
- TGI [33]: 5.16 µM
- GI50 [34]: 2.46 µM
- TGI [34]: 7.49 µM
- GI50 [35]: 2.2 µM
- TGI [35]: 7.35 µM
- GI50 [36]: 1.73 µM
- TGI [36]: 3.48 µM
- GI50 [37]: 2.3 µM
- TGI [37]: 7.02 µM
- GI50 [38]: 1.62 µM
- TGI [38]: 3.26 µM
- GI50 [39]: 1.86 µM
- TGI [39]: 3.76 µM
- GI50 [40]: 1.68 µM
- TGI [40]: 3.05 µM
- GI50 [41]: 8.27 µM
- TGI [41]: 26.2 µM
- GI50 [42]: 1.55 µM
- TGI [42]: 2.91 µM
- GI50 [43]: 2.08 µM
- TGI [43]: 4.84 µM
- GI50 [44]: 7.63 µM
- TGI [44]: 21.4 µM
- GI50 [45]: 1.8 µM
- TGI [45]: 3.69 µM
- GI50 [46]: 1.88 µM
- TGI [46]: 4.42 µM
- GI50 [47]: 3.78 µM
- TGI [47]: 17.8 µM
- GI50 [48]: 3.15 µM
- TGI [48]: 10.9 µM
- GI50 [49]: 1.82 µM
- TGI [49]: 3.4 µM
- GI50 [50]: 1.59 µM
- TGI [50]: 3.24 µM
- GI50 [51]: 6.1 µM
- TGI [51]: 20.2 µM
- GI50 [52]: 1.79 µM
- TGI [52]: 3.59 µM
- GI50 [53]: 1.57 µM
- TGI [53]: 3.04 µM
- GI50 [54]: 1.71 µM
- TGI [54]: 3.32 µM
- GI50 [56]: 1.92 µM
- TGI [56]: 4.15 µM
- GI50 [57]: 1.5 µM
- TGI [57]: 3.03 µM
- GI50 [58]: 2.02 µM
- TGI [58]: 4.26 µM
